Source: patent publication US7932286B2, “Method for treating colonic viscerosensitivity and spasticity” (priority 2007, dated 2011)

Test system: colonic viscerosensitivity and spasticity induced by colonoscopy
Test: Video-endoscopic colonoscopy after oral pre-treatment, individual case studies
Assay type: in vivo, human
Description: The patient had received a complete colonoscopy three years before in a hospital based gastro-intestinal unit, and this experience left them very anxious concerning the need for a repeat examination. The occurrence of pain during the procedure as well as the discomfort lasting few hours following the colonoscopic examination, despite parenteral sedation/analgesia, was still vivid in their memories. They wanted to negotiate an alternate diagnostic procedure such as a air-contrast barium enema. […] They were instructed to completed this pharmacological preparation by taking two Fleet® Phospho-soda 45 ml vials with five or six glasses of liquid one in the evening before the examination, and one in the morning two hours before the examination to clean and prepare “clean-rep” the colon. They presented alone to the endoscopy clinic and they were appropriately positioned on their left side on the examination table, and the video-endoscopic colonoscopy was initiated by the endoscopist. The colonoscopy was easily completed to the caecum in 14 minutes. […] The whole colonic examination including the accurate examination of the colon upon retraction of the instrument lasted a total of 25 minutes and was negative for mucosal lesions and for endoluminal polypoid formations. The patient then dressed up and walked to the endoscopist's office to receive the good results of the examination. They were asked several questions on their experience of the new pharmacological preparation as compared to their previous hospital-based unit experience with parenteral sedation/analgesia. […] The endoscopist and the assistant nurse were very satisfied with the ease and shortness of the completed procedure.
As part of a complete investigation, a colonoscopy was planned. They were prescribed Trimebutine maleate 200 mg tablets to be taken orally three times a day for three days before the scheduled examination. They were instructed to complete the pharmacological preparation by taking two Fleet® Phospho-soda 45 ml vials with five or six glasses of liquid, one in the evening before the examination, and one in the morning two hours before the examination to clean and prepare “clean-prep” the colon. They presented to the endoscopy unit with doubts that they could sustain the planned examination without any other drug preparation, having seen in their career many patients having barely tolerated this procedure of full colonoscopy, even after having received before the examination meperidine and midazolam intravenously. They also remembered the “stress experienced by the endoscopist and the assistant nurse working at completing the examination rapidly and successfully reaching the caecum in these patients”. Nonetheless, they consented at trying to receive the examination without further pharmacological preparation, with the promise by the physician that the procedure would be interrupted at their request in the case that they could not tolerate the pain or discomfort. After appropriately positioning the patient on their left side, the instrument was delicately introduced in their rectum, and the progression of the instrument gently initiated. They asked to have their head elevated with a pillow so they could see the video monitor and watch the video-endoscopic recording of their examination. […] The physician and the nurse were surprised by the fact that such a patient presenting a clinical irritable bowel syndrome could experience so little discomfort during the examination since these patients characteristically are chronically suffering from a very low threshold of viscerosentivity with solid or gaseous distension of the colon. After the procedure, they commented that they would accept to repeat the examination any time, and would not hesitate to recommend this pharmacological preparation to patients needing complete colonoscopy, and would be ready to reassure them that there were no more reasons to fear to receive such examination.

[1] = Example 1, patient, 200 mg tablets orally three times a day for three days before examination
[2] = Example 2, patient with clinical irritable bowel syndrome, 200 mg tablets orally three times a day for three days

## Trimebutine maleate
Example 1, patient
  recovery after the procedure: capable to drive home by themself without any assistance or recovery time
[1]
  colonic spastic contractions during colonoscopy: No colonic spastic contractions occurred
  duration of whole colonic examination including retraction of the instrument: 25 min
  pain or discomfort generated by air-distension of the colon: did not generate pain or discomfort
Example 1, patient, 200 mg tablets orally three times a day for three days before examination, no sedation
  time in which colonoscopy was completed to the caecum: 14 min
Example 1, patient, questioned after the examination
  patient-reported pain and discomfort during the procedure: did not experience any pain and very mild discomfort
[2]
  discomfort experienced by the patient during the examination: only mild but perfectly tolerable discomfort
  progression of the instrument in the patient: easy, painless
  spastic contractions during colonoscopy: No spastic contractions delayed the progression of the instrument
Example 2, patient with clinical irritable bowel syndrome, 200 mg tablets orally three times a day for three days before examination, no sedation
  time in which the caecum was reached: 12 min
